One assay has as its system DHT. Briefly: DHT quantification with Elisa kit in PC3 cells treated with excessive testosterone. Type of assay: cell-based, human. To be noted: PC3 cells with excessive testosterone 8.8 μg/ml, finasteride 2 μg/ml (positive control). The protocol:
Total protein was isolated after 24 hours treatment with the extract of Curcuma mangga Val. et Zipp. The isolation was performed using Lysis Buffer and TRIzol method. The result of total protein isolation further was calculated using Lowry method. Protein that was obtained subsequently was used as a sample for Western Blot against 5-alpha-reductase and DHT, and the DHT test using Elisa kit Alpha Diagnostic International. The analytical process of semi-Western Blot was performed in accordance to the general method, which is using specific antibody for 5-alpha-reductase-1 and DHT. The detection of Western Blot was performed using HRP-conjugated (Horseradish Peroxidase) secondary antibody and coloring with luminol.
Quantitative analysis was performed using Elisa kit in accordance to the protocol provided by the manufacturer. PC3 cells that were used in this present invention was treated with excessive testosterone which is 8.8 μg/ml, and was treated with 150 μg/ml Curcuma mangga Val. et Zipp extract and 2 μg/ml finasteride, in separate groups. In this present invention, the finasteride treatment group was a positive control.

Assay [1] deals with male rats (Rattus norvegicus) Wistar strain with induced prostate gland growth. Briefly: Inhibition of prostate gland growth in castrated, testosterone-induced rats. Type of assay: in vivo. Particulars: finasteride 1 mg/kg. The protocol:
Animals that were used in the present invention were male rats (Rattus norvegicus) Wistar strain weighing between 200-250 grams from Indoanilab, Bogor, Indonesia. The animals were bred in special cages, in groups, with a normal light setting, which are 12 hours of light and 12 hours of dark and received food and drinking water ad libitum.
The animals were divided into five groups: sham-operated group (normal group), negative control group that is BPH group without any treatment, positive control group that is treated with finasteride 1 mg/kg of body weight, and treatment group which divided into two groups based on the dose of Curcuma mangga Val. et Zipp. extract that they received, namely 92.37 mg/kg and 184.74 mg/kg of body weight. In all animals the growth of its prostate gland were induced, except for the animals in the sham-operated group.
Those rats were induced with subcutaneous administration of testosterone injection to stimulate the growth of prostate gland at the dose of 10 mg/kg body weight, every day for 7 days. The administration of testosterone injection was performed after the removal of testes (castration) and sham surgery in rats. The castration procedures were performed to avoid bias caused by the differences of testosterone amount produced by each individual rat.

Consider `CC(C)(C)NC(=O)[C@H]1CC[C@H]2[C@@H]3CC[C@H]4NC(=O)C=C[C@]4(C)[C@H]3CC[C@]12C` [finasteride], for which the “DHT levels (Elisa kit)” value in the assay on DHT is recorded as “reduced levels of DHT”. For the same molecule, the DHT plasma concentration entry in assay [1] was “suppression of DHT plasma concentration”.

Values taken from patent US10688146B2, “Curcuma mangga val et. zipp. extract as a treatment to overcome prostate problems” (PT DEXA MEDICA, priority 2013, dated 2020).
